US8742117B2, “Oxime derivatives” (Cadila Healthcare Limited, priority 2008, dated 2014)

Key:
[1] = biological target: T1, human GPR 119 receptor (Homo sapiens, UniProt Q8TDV5); assay: cAMP assay in stable cell line expressing recombinant human GPR 119 receptor; type: cell-based; details: 1 μM; intracellular cAMP, recombinant human GPR 119 cell line
T1 construct: expressed in transfected cells
T1 sequence (Q8TDV5 1-335): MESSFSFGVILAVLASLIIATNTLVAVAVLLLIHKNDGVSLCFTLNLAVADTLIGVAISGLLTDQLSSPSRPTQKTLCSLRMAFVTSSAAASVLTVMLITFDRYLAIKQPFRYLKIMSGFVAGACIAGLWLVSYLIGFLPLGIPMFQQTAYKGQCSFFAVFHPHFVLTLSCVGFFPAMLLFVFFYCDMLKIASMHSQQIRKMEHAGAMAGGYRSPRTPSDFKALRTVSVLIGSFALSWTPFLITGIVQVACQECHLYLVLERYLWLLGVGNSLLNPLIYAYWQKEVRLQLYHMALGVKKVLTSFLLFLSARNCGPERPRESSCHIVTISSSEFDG
Source text: A stable cell line expressing recombinant human GPR 119 receptor was established and used to investigate the efficacy of the compounds of the invention based on the intracellular levels of cyclic AMP (cAMP) using commercially available cAMP kits. Compounds of the invention produced a concentration dependent increase in cAMP level and EC50 values of representative compounds were provided in table 1 and table 2 respectively.

[2] = system: Sprague Dawley rats; assay: Feed intake in Sprague Dawley rats; type: in vivo, rat; details: 25 mg/kg i.p., cumulative feed intake vs vehicle control
Source text: In Vivo Efficacy Studies: Feed Intake in Sprague Dawley Rats:
Sprague Dawley rats of 6-8 week age were be used for this experiment they were be kept for acclimatization in reversed light/dark cycle for 15 days. Animals will have free access to a standard chow diet and water during acclimatization period. After 15 days reversed light/dark cycle acclimatization animals were trained for fasting induced feed intake for 5 days till they show consistent feed intake. Grouping was done based on the monitored feed intake the training days. On treatment day each group of animals were dosed with test compound or vehicle by appropriate routes of administration (orally or intraperitoneally). Exactly 30 min. after treatment, measured amount of standard chow diet was provided and recorded as 0-min feed offered. Then subsequently 2, 4, 6 and 24 hour after 0-min, feed intake was measured and the cumulative feed intakes were calculated. The change in cumulative feed intake as compare to vehicle treated control at each time point was calculated for test compound and results were provided in table 2

[3] = system: C57/BL6 mice; assay: Oral glucose tolerance test (OGTT) in C57/BL6 mice; type: in vivo, mouse; details: 30 mg/kg oral single dose; glucose load 3 gm/kg; serum glucose AUC
Description: Oral Glucose Tolerance Tests (OGTT) in C57/BL6 Mice:
C57/BL6 mice of 6-8 week age were used for this experiment. Animals were grouped based on non-fasting serum glucose levels and kept on fasting for overnight (day before OGTT). On the experiment day, each animal received a single dose of vehicle/test compounds (30 mg/kg) were administered orally, 30 min post dosing animals were bled for basal glucose level estimation and at same time glucose load (3 gm/kg) will be administered per orally. Blood was collected at time points corresponding to 20, 40, 60 and 120 min after glucose load administration. Serum was separated for determination of glucose levels and change in area under curve for glucose was calculated and provided in table 3 as % reduction in AUC.

| SMILES | % activity at 1 μM [1] | % reduction in food in take 2 hour [2] | % reduction in food in take 4 hour [2] | % reduction in food in take 6 hour [2] | % reduction in food in take 24 hour [2] | % reduction in AUC at 30 mg/kg [3] |
| --- | --- | --- | --- | --- | --- | --- |
| CC(=NOc1ncnc(N2CCC(c3nc(C(C)C)no3)CC2)c1C)c1ccc(S(C)(=O)=O)cc1F [Example 6, 1-(2-fluoro-4-(methylsulfonyl)phenyl)ethanone O-6-(4-(3-isopropyl-1,2,4-oxadiazol-5-yl)piperidin-1-yl)-5-methylpyrimidin-4-yl oxime] | 49.55% | 57% | 52% | 33.3% | 15.1% | 20% |
| CC(=NOc1ncnc(N2CCC(c3nc(C(C)C)no3)CC2)c1[N+](=O)[O-])c1cccnc1 [Example 10, 1-(pyridin-3-yl)ethanone O-6-(4-(3-isopropyl-1,2,4-oxadiazol-5-yl)piperidin-1-yl)-5-nitropyrimidin-4-yl oxime] | 31.37% | 38% | 31% | 25.4% | 10% | – |
| CC(=NOc1ncnc(N2CCC(c3nc(C(C)C)no3)CC2)c1[N+](=O)[O-])c1ccc(S(C)(=O)=O)cc1 [Example 11, 1-(4-(methylsulfonyl)phenyl)ethanone O-6-(4-(3-isopropyl-1,2,4-oxadiazol-5-yl)piperidin-1-yl)-5-nitropyrimidin-4-yl oxime] | 103.98% | 76.2% | 43.1% | 36% | 17% | – |
| CC(=NOc1ncnc(N2CCC(c3nc(C(C)C)no3)CC2)c1[N+](=O)[O-])c1ccc(S(C)(=O)=O)cc1F [Example 14, 1-(2-fluoro-4-(methylsulfonyl)phenyl)ethanone O-6-(4-(3-isopropyl-1,2,4-oxadiazol-5-yl)piperidin-1-yl)-5-nitropyrimidin-4-yl oxime] | 89.97% | 53% | 48% | 37% | 16% | 20% |
| CC(=NOc1ncnc(N2CCC(c3nc(C(C)C)no3)CC2)c1C)c1ccc(C(F)(F)F)cc1 [Example 15, 1-(4-(trifluoromethyl)phenyl)ethanone O-6-(4-(3-isopropyl-1,2,4-oxadiazol-5-yl)piperidin-1-yl)-5-methylpyrimidin-4-yl oxime] | 79.21% | 41% | 27% | 24% | 11% | 23.4% |

Now from value to compound, other results behind:

| % activity at 1 μM [1] | SMILES | % reduction in food in take 2 hour [2] | % reduction in food in take 4 hour [2] | % reduction in food in take 6 hour [2] | % reduction in food in take 24 hour [2] | % reduction in AUC at 30 mg/kg [3] |
| --- | --- | --- | --- | --- | --- | --- |
| 78.54% | CC(=NOc1ncnc(N2CCC(c3nc(C(C)C)no3)CC2)c1C)c1ccc(OC(F)(F)F)cc1 [Example 16, 1-(4-(trifluoromethoxy)phenyl)ethanone O-6-(4-(3-isopropyl-1,2,4-oxadiazol-5-yl)piperidin-1-yl)-5-methylpyrimidin-4-yl oxime] | 43% | 25% | 16% | 4.5% | – |
| 18.5% | CC(=NOc1ncnc(N2CCC(c3nc(C(C)C)no3)CC2)c1C)c1ccc2ccccc2c1 [Example 22, 1-(naphthalen-2-yl)ethanone O-6-(4-(3-isopropyl-1,2,4-oxadiazol-5-yl)piperidin-1-yl)-5-methylpyrimidin-4-yl oxime] | 30% | 43% | 44% | 14% | – |
| 17.7% | CC(=NOc1ncnc(N2CCC(c3nc(C(C)C)no3)CC2)c1[N+](=O)[O-])c1ccc2ccccc2c1 [Example 23, 1-(naphthalen-2-yl)ethanone O-6-(4-(3-isopropyl-1,2,4-oxadiazol-5-yl)piperidin-1-yl)-5-nitropyrimidin-4-yl oxime] | 38% | 26% | 26% | 4% | – |
